{"source": "patent US7750048B2", "about": "“GPR40 agonists” (Janssen Pharmaceutica NV, priority 2006, dated 2010)", "biological_target": "T1, GPR40 receptor (Homo sapiens, UniProt O14842)", "T1 construct": "expressed in transfected cells; host or cells: HEK293 (clone hGPR40-32)", "T1 sequence (O14842 whole entry)": "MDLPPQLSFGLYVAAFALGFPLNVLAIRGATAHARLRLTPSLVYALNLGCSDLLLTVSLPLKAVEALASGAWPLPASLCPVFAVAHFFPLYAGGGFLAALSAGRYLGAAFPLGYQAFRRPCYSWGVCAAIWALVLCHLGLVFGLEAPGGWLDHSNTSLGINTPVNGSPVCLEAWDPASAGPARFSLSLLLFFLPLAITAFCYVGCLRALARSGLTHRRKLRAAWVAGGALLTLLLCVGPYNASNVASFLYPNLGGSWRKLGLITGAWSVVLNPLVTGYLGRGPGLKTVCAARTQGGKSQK", "assay": "GPR40 in vitro assay: calcium mobilization in transfected HEK293/hGPR40-32 cells (FDSS6000)", "type": "cell-based", "settings": "several values in one cell are separate determinations, read-out: ED50 (the source's name)", "protocol": "To identify agonists of GPR40 receptor, the following assay was used to measure FFA-induced calcium mobilization in transfected cell lines HEK293/hGPR40-32: • Plate 20,000 cell/well in Corning 384 well plate (Cat# 3712); • Incubate over night (16 to 24 hours); • Remove medium; • Add 40 μl of 1×BD dye (1× signal enhancer, 1× calcium indicator dye, 1× probenecid, 0.01% BSA in DMEM/F12 media without Phenol Rad); • Incubate 30 minutes at 37° C. and 15 minutes at RT; • Read with the FDSS6000 System; • Add 20 μl of test compound (in 0.01% BSA in DMEM/F12 media without Phenol Rad); • Read for 5 minutes; • Add 20 μl of 40 μM linolenic acid or GPR40 agonist (in 0.01% BSA in DMEM/F12 media without Phenol Rad); • Read for 2 minutes.\nPercentage Inhibition and/or ED50 were calculated following conventional methods.", "note": "“And” between values parts separate entries of the source, which are not always exact repeats. Equal entries are not always repeated."}
{"molecule": "CCC(CC)COc1ccc(C(CC(=O)O)c2ccccc2)cc1", "note": "(racemic) [Compound 11, 3-[4-(2-Ethyl-butoxy)-phenyl]-3-phenyl-propionic acid]", "values": [{"measurement": "EC50", "value": 640, "unit": "nM"}]}
{"molecule": "CCC(CC)COc1ccc(C(CC(=O)O)c2ccccc2)cc1", "note": "(single isomer, unassigned) [Compound 14, 3-[4-(2-Ethyl-butoxy)-phenyl]-3-phenyl-propionic acid]", "values": [{"measurement": "EC50", "value": "> 30000", "unit": "nM"}]}
{"molecule": "CCC(CC)COc1ccc(C(CC(=O)O)c2ccccc2)cc1", "note": "(single isomer, unassigned) [Compound 15, 3-[4-(2-Ethyl-butoxy)-phenyl]-3-phenyl-propionic acid]", "values": [{"measurement": "EC50", "value": 850, "unit": "nM"}]}
{"molecule": "CC[C@@H](C)COc1ccc(C(CC(=O)O)c2ccccc2)cc1", "note": "(single isomer, unassigned) [Compound 16, 3-[4-(2-Methyl-butoxy)-phenyl]-3-phenyl-propionic acid]", "values": [{"measurement": "EC50", "value": 710, "unit": "nM"}]}
{"molecule": "CC[C@H](C)COc1ccc(C(CC(=O)O)c2ccccc2)cc1", "note": "(single isomer, unassigned) [Compound 17, 3-[4-(2-Methyl-butoxy)-phenyl]-3-phenyl-propionic acid]", "values": [{"measurement": "EC50", "value": 560, "unit": "nM"}]}
{"molecule": "CC[C@@H](C)COc1ccc(C(CC(=O)O)c2ccccc2)cc1", "note": "(single isomer, unassigned) [Compound 18, 3-[4-(2-Methyl-butoxy)-phenyl]-3-phenyl-propionic acid]", "values": [{"measurement": "EC50", "value": "> 10000", "unit": "nM"}]}
{"molecule": "CC[C@H](C)COc1ccc(C(CC(=O)O)c2ccccc2)cc1", "note": "(single isomer, unassigned) [Compound 19, 3-[4-(2-Methyl-butoxy)-phenyl]-3-phenyl-propionic acid]", "values": [{"measurement": "EC50", "value": "> 10000", "unit": "nM"}]}
{"molecule": "CCCOc1ccc(C(CC(=O)O)c2ccccc2)cc1", "note": "(stereo not drawn) [Compound 1, 3-Phenyl-3-(4-propoxy-phenyl)-propionic acid]", "values": [{"measurement": "EC50", "value": 3700, "unit": "nM"}]}
{"molecule": "CCCCOc1ccc(C(CC(=O)O)c2ccccc2)cc1", "note": "(stereo not drawn) [Compound 2, 3-(4-Butoxy-phenyl)-3-phenyl-propionic acid]", "values": [{"measurement": "EC50", "value": "1430 nM and 960 nM"}]}
{"molecule": "CCCCCOc1ccc(C(CC(=O)O)c2ccccc2)cc1", "note": "(stereo not drawn) [Compound 3, 3-(4-Pentyloxy-phenyl)-3-phenyl-propionic acid]", "values": [{"measurement": "EC50", "value": "3300 nM and 4200 nM and 1400 nM"}]}
{"molecule": "CCCCCCOc1ccc(C(CC(=O)O)c2ccccc2)cc1", "note": "(stereo not drawn) [Compound 4, 3-(4-Hexyloxy-phenyl)-3-phenyl-propionic acid]", "values": [{"measurement": "EC50", "value": 2880, "unit": "nM"}]}
{"molecule": "CCCCCCCOc1ccc(C(CC(=O)O)c2ccccc2)cc1", "note": "(stereo not drawn) [Compound 5, 3-(4-Heptyloxy-phenyl)-3-phenyl-propionic acid]", "values": [{"measurement": "EC50", "value": 4260, "unit": "nM"}]}
{"molecule": "O=C(O)CC(c1ccccc1)c1ccc(OCCCC(F)(F)F)cc1", "note": "(stereo not drawn) [Compound 6, 3-Phenyl-3-[4-(4,4,4-trifluoro-butoxy)-phenyl]-propionic acid]", "values": [{"measurement": "EC50", "value": 3160, "unit": "nM"}]}
{"molecule": "CC(C)CCOc1ccc(C(CC(=O)O)c2ccccc2)cc1", "note": "(stereo not drawn) [Compound 7, 3-[4-(3-Methyl-butoxy)-phenyl]-3-phenyl-propionic acid]", "values": [{"measurement": "EC50", "value": "1810 nM and 2580 nM and 1180 nM"}]}
{"molecule": "C=C(C)CCOc1ccc(C(CC(=O)O)c2ccccc2)cc1", "note": "(stereo not drawn) [Compound 8, 3-[4-(3-Methyl-but-3-enyloxy)-phenyl]-3-phenyl-propionic acid]", "values": [{"measurement": "EC50", "value": 2710, "unit": "nM"}]}
{"molecule": "CC=CCOc1ccc(C(CC(=O)O)c2ccccc2)cc1", "note": "(stereo not drawn) [Compound 9, 3-(4-But-2-enyloxy-phenyl)-3-phenyl-propionic acid]", "values": [{"measurement": "EC50", "value": 2710, "unit": "nM"}]}
{"molecule": "COCCCOc1ccc(C(CC(=O)O)c2ccccc2)cc1", "note": "(stereo not drawn) [Compound 10, 3-[4-(3-methoxy-propoxy)-phenyl]-3-phenyl-propionic acid]", "values": [{"measurement": "EC50", "value": 7580, "unit": "nM"}]}
{"molecule": "CCC(C)COc1ccc(C(CC(=O)O)c2ccccc2)cc1", "note": "(stereo not drawn) [Compound 12, 3-[4-(2-Methyl-butoxy)-phenyl]-3-phenyl-propionic acid]", "values": [{"measurement": "EC50", "value": "330 nM and 260 nM"}]}
{"molecule": "CC1CCC(Oc2ccc(C(CC(=O)O)c3ccccc3)cc2)CC1", "note": "(stereo not drawn) [Compound 13, 3-[4-(4-Methyl-cyclohexyloxy)-phenyl]-3-phenyl-propionic acid]", "values": [{"measurement": "EC50", "value": 7320, "unit": "nM"}]}
{"molecule": "CCCCOc1ccc(C(CC(=O)O)c2cccc(F)c2)cc1", "note": "(stereo not drawn) [Compound 20, 3-(4-Butoxy-phenyl)-3-(3-fluoro-phenyl)-propionic acid]", "values": [{"measurement": "EC50", "value": 1440, "unit": "nM"}]}
{"molecule": "CCCCOc1ccc(C(CC(=O)O)c2cccc(C(F)(F)F)c2)cc1", "note": "(stereo not drawn) [Compound 21, 3-(4-Butoxy-phenyl)-3-(3-trifluoromethyl-phenyl)-propionic acid]", "values": [{"measurement": "EC50", "value": 2840, "unit": "nM"}]}
{"molecule": "CCCCOc1ccc(C(CC(=O)O)c2ccccc2O)cc1", "note": "(stereo not drawn) [Compound 22, 3-(4-Butoxy-phenyl)-3-(2-hydroxy-phenyl)-propionic acid]", "values": [{"measurement": "EC50", "value": 4800, "unit": "nM"}]}
{"molecule": "CCCCOc1ccc(C(CC(=O)O)c2cccs2)cc1", "note": "(stereo not drawn) [Compound 23, 3-(4-Butoxy-phenyl)-3-thiophen-2-yl-propionic acid]", "values": [{"measurement": "EC50", "value": "960 nM and 1610 nM"}]}
{"molecule": "COCCOc1ccc(C(CC(=O)O)c2ccccc2)cc1", "note": "(stereo not drawn) [Compound 24, 3-[4-(2-Methoxy-ethoxy)-phenyl]-3-phenyl-propionic acid]", "values": [{"measurement": "EC50", "value": "> 10000", "unit": "nM"}]}
{"molecule": "CCC(CC)Oc1ccc(C(CC(=O)O)c2ccccc2)cc1", "note": "(stereo not drawn) [Compound 25, 3-[4-(1-Ethyl-propoxy)-phenyl]-3-phenyl-propionic acid]", "values": [{"measurement": "EC50", "value": "> 10000", "unit": "nM"}]}
{"molecule": "CCCCOc1ccc(C(CC(=O)O)c2ccc(OC(F)(F)F)cc2)cc1", "note": "(stereo not drawn) [Compound 26, 3-(4-Butoxy-phenyl)-3-(4-trifluoromethoxy-phenyl)-propionic acid]", "values": [{"measurement": "EC50", "value": "> 10000", "unit": "nM"}]}
{"molecule": "CC(C)(C)CCOc1ccc(C(CC(=O)O)c2ccccc2)cc1", "note": "(stereo not drawn) [Compound 28, 3-[4-(3,3-Dimethyl-butoxy)-phenyl]-3-phenyl-propionic acid]", "values": [{"measurement": "EC50", "value": "> 10000", "unit": "nM"}]}
